# Measurements: patent US7071190B2, “Inhibitors to tubulin polymerization” (Rigel Pharmaceuticals, Inc., priority 2002, dated 2006)
# Read-outs that look alike come from different tables or passages of the source.
# Test system: A549 cells
# Experiment: Bromodeoxyuridine (BrdU) proliferation assay
# Type: cell-based, human
# Details: for IC50: BrdU ELISA 48 hours after addition of compound, tested 0.03-10 uM, cell line not given (A549 method; SW-480 and MDA-MB-231 also used), read-out: Assay Result (IC50μM); for Activity ranking: particularly active examples of the compounds of the invention / Activity ranking: most active compounds of the invention: antiproliferative activity
# Description: In order to determine the antiproliferative activity of microtubule inhibitors, A549 cells were plated in 96 well plates at 2000 cells/well 24 hours prior to the addition of a compound of the invention in 80 ul growth media (F12K, 10% FBS, Pen/Strep). Prior to addition to cells, compounds were solubilized in 100% DMSO to 5 mM and serially diluted in 6 semi-log steps in 100% DMSO. The diluted compounds were added to cells by two 15.8-fold dilution steps, the first being a dilution into a 23% ethanol/H2O mixture and the second being a dilution into growth media. Finally, these dilutions were followed by a 1:1 dilution onto cells. The resulting final solvent concentration was 0.2% DMSO/0.75% ethanol. Compounds were tested at final concentrations of 10, 3, 1, 0.3, 0.1 and 0.03 uM. Forty-eight hours after the addition of compound, the effects on cellular proliferation were measured using a cell proliferation BrdU ELISA (Roche Molecular Biochemicals, Cat.#1 669 915).
SMILES,IC50 [µM],"IC50 (Homo sapiens, A549, 48 h) [µM]",Activity ranking: particularly active examples of the compounds of the invention,Activity ranking: most active compounds of the invention
Cc1cccc(-c2cc3ncnc(NNC(=S)NCC4COC(C)(C)O4)c3s2)c1 (stereo not drawn) [Compound 82],,,particularly active,
S=C(NNc1ncnc2cc(-c3ccc4c(c3)OCO4)sc12)NC1CC1 [Compound 56],,,particularly active,
S=C(NC[C@@H]1CCCO1)NNc1ncnc2cc(-c3ccccc3)sc12 [Compound 65],,0.134,particularly active,most active
COCCNC(=S)NNc1ncnc2cc(-c3cc(C)cc(C)c3)sc12 [Compound 100],,0.013,particularly active,most active
Cc1cccc(-c2cc3ncnc(NNC(=S)NC4CCCC4)c3s2)c1 [Compound 46],,0.256,particularly active,most active
S=C(NNc1ncnc2cc(-c3cccc(Cl)c3)sc12)Nc1ccccc1 [Compound 35],,2.79,particularly active,
COc1ccc(NC(=S)NNc2ncnc3cc(-c4ccccc4)sc23)c(OC)c1 [Compound 14],26.7,,,
COCCNC(=S)NNc1ncnc2cc(-c3ccc(OC)cc3)sc12 [Compound 92],,1.19,particularly active,
S=C(NNc1ncnc2cc(-c3ccc4c(c3)OCO4)sc12)Nc1ccccc1 [Compound 52],,,particularly active,
Cc1cc(C)cc(-c2cc3ncnc(NNC(=S)Nc4ccccc4)c3s2)c1 [Compound 50],,0.927,particularly active,most active
COc1ccc(NC(=S)NNc2ncnc3cc(-c4ccccc4)sc23)c(OC)c1 [Compound 13],0.38,,particularly active,most active
S=C(NNc1ncnc2cc(-c3ccccc3)sc12)N[C@@H]1CCC[C@H]1OCc1ccccc1 [Compound 22],,5.57,particularly active,
Cc1cc(C)cc(-c2cc3ncnc(NNC(=S)NC(C)C)c3s2)c1 [Compound 99],,0.086,particularly active,most active
Cc1cccc(-c2cc3ncnc(NNC(=S)NCC4CCCO4)c3s2)c1 (stereo not drawn) [Compound 79],,0.719,particularly active,most active
S=C(NC[C@H]1CCCO1)NNc1ncnc2cc(-c3ccccc3)sc12 [Compound 64],,0.188,particularly active,most active
S=C(NCCc1ccccc1)NNc1ncnc2cc(-c3ccccc3)sc12 [Compound 58],,1.11,particularly active,
COCCNC(=S)NNc1ncnc2cc(-c3ccccc3)sc12 [Compound 73],,0.202,particularly active,most active
CCNC(=S)NNc1ncnc2cc(-c3cccc(C)c3)sc12 [Compound 84],,0.113,particularly active,most active
COc1cccc(-c2cc3ncnc(NNC(=S)NCC4CCCO4)c3s2)c1 (stereo not drawn) [Compound 81],,,particularly active,
Cc1cccc(-c2cc3ncnc(NNC(=S)NCc4ccco4)c3s2)c1 [Compound 83],,0.127,particularly active,most active
Cc1cc(C)cc(-c2cc3ncnc(NNC(=S)NCC4CCCO4)c3s2)c1 (stereo not drawn) [Compound 98],,0.025,particularly active,most active
COc1cccc(NC(=S)NNc2ncnc3cc(-c4ccccc4)sc23)c1 [Compound 5],,0.49,particularly active,most active
S=C(NCc1ccco1)NNc1ncnc2cc(-c3ccccc3)sc12 [Compound 69],,0.093,particularly active,most active
COC(=O)CCNC(=S)NNc1ncnc2cc(-c3ccccc3)sc12 [Compound 76],,0.187,particularly active,most active
COc1ccc(NC(=S)NNc2ncnc3cc(-c4ccccc4)sc23)cc1OC [Compound 15],,6.7,particularly active,
Cc1ccc(-c2cc3ncnc(NNC(=S)NC4CC4)c3s2)cc1 [Compound 38],,0.121,particularly active,most active
S=C(NNc1ncnc2cc(-c3cccc(Cl)c3)sc12)NC1CC1 [Compound 42],,0.146,particularly active,most active

# Second part, led by results:
IC50 [µM],"IC50 (Homo sapiens, A549, 48 h) [µM]",SMILES,Activity ranking: particularly active examples of the compounds of the invention,Activity ranking: most active compounds of the invention
10.7,,COc1cc([N+](=O)[O-])ccc1NC(=S)NNc1ncnc2cc(-c3ccccc3)sc12 [Compound 18],particularly active,
,0.071,S=C(NNc1ncnc2cc(-c3ccccc3)sc12)NC1CCCC1 [Compound 20],particularly active,most active
,1.43,Cc1cccc(-c2cc3ncnc(NNC(=S)NCCCO)c3s2)c1 [Compound 48],particularly active,
,6.31,OCCCCNC(=S)NNc1ncnc2cc(-c3ccccc3)sc12 [Compound 28],particularly active,
,6.03,S=C(NCCN1CCOCC1)NNc1ncnc2cc(-c3ccccc3)sc12 [Compound 68],particularly active,
,0.029,COCCCNC(=S)NNc1ncnc2cc(-c3cc(C)cc(C)c3)sc12 [Compound 101],particularly active,most active
,7.16,Cc1cccc(-c2cc3ncnc(NNC(=S)N[C@@H]4CCC[C@H]4OCc4ccccc4)c3s2)c1 [Compound 47],particularly active,
0.39,,S=C(NNc1ncnc2cc(-c3ccccc3)sc12)Nc1ccccc1 [Compound 2],particularly active,most active
,5.75,NC(=S)NNc1ncnc2cc(-c3ccccc3)sc12 [Compound 26],particularly active,
,0.054,COCCCNC(=S)NNc1ncnc2cc(-c3ccccc3)sc12 [Compound 74],particularly active,most active
,0.044,CCCNC(=S)NNc1ncnc2cc(-c3cccc(C)c3)sc12 [Compound 85],particularly active,most active
,1.5,S=C(NNc1ncnc2cc(-c3ccc(Cl)cc3)sc12)Nc1ccccc1 [Compound 34],particularly active,
,8.15,S=C(NCC(c1ccccc1)c1ccccc1)NNc1ncnc2cc(-c3ccccc3)sc12 [Compound 105],particularly active,
,6.44,S=C(NNc1ncnc2cc(-c3ccccc3)sc12)Nc1cccnc1 [Compound 25],particularly active,
,0.15,Cc1ccc(-c2cc3ncnc(NNC(=S)NC4CC4)c3s2)cc1C [Compound 55],particularly active,most active
,0.622,Cc1ccc(-c2cc3ncnc(NNC(=S)Nc4ccccc4)c3s2)cc1C [Compound 51],particularly active,most active
,0.155,COc1ccc(-c2cc3ncnc(NNC(=S)Nc4ccccc4)c3s2)cc1 [Compound 33],particularly active,most active
